In patent US4229573A, “7α-Methoxycephalosporin derivatives” (Asahi Kasei Kogyo Kabushiki Kaisha, priority 1977, dated 1980):
Values after ≈ are worked out from the molar mass of the structure shown. Read-outs that look alike come from different tables or passages of the source.

What was measured:
Assay in all cases: Minimum inhibitory concentration (MIC) against bacteria
Assay type in all cases: cell-based
[1] = test system: Salmonella enteritidis gaertner
Text: (§1) In an antimicrobial spectrum, a minimum inhibitory concentration (MIC) against a bacterium is expressed in terms of μg/ml.

[2] = test system: Citrobacter freundii GN 346; conditions: GN346
Text: as §1

Escherichia coli, NIHJ = test system: Escherichia coli, NIHJ
Text: as §1

Proteus mirabilis = test system: Proteus mirabilis
Text: as §1

[3] = test system: Staphylococcus aureus, ATCC 6538 P
Text: as §1

[4] = test system: Staphylococcus aureus, ATCC MS 27
Text: as §1

[5] = test system: Klebsiella pheumoniae, ATCC 10031
Text: as §1

Proteus rettgeri, ACR = test system: Proteus rettgeri, ACR
Text: as §1

Escherichia coli, 0205 = test system: Escherichia coli, 0205
Text: as §1

[6] = test system: Enterobacter cloacae GN 336; conditions: GN336
Text: as §1

Proteus morganii 0239 = test system: Proteus morganii 0239
Text: as §1

[7] = Salmonella enterica, Salmonella enteritidis gaertner, read-out: MIC
[8] = Citrobacter freundii GN 346, read-out: MIC
[9] = ATCC6538, ATCC 6538 P, read-out: MIC
[10] = ATCCMS27, ATCC MS 27, read-out: MIC
[11] = ATCC10031, Klebsiella pheumoniae, ATCC 10031, read-out: MIC
[12] = Providencia rettgeri, Proteus rettgeri, ACR, read-out: MIC
[13] = Enterobacter cloacae GN 336, read-out: MIC
[14] = Morganella morganii, Proteus morganii 0239, read-out: MIC

| MIC [1, 7] | MIC [2, 8] | MIC (Escherichia coli, NIHJ; read-out: MIC) | MIC (Proteus mirabilis; read-out: MIC) | MIC [3, 9] | MIC [4, 10] | MIC [5, 11] | MIC (Proteus rettgeri, ACR; [12]) | MIC (Escherichia coli, 0205; read-out: MIC) | MIC [6, 13] | MIC (Proteus morganii 0239; [14]) | SMILES | MIC ([2]; Citrobacter freundii) | MIC (Proteus mirabilis) | MIC ([6]; Enterobacter cloacae) | further results |
| --- | --- | --- | --- | --- | --- | --- | --- | --- | --- | --- | --- | --- | --- | --- | --- |
| – | – | – | – | – | – | – | – | – | – | – | CO[C@@]1(NC(=O)C[S+]([O-])c2cccs2)C(=O)N2C(C(=O)O)=C(CSc3nnnn3C)CS[C@@H]21 (stereo partly drawn) [Example 21, 7β-(2-Thienylsulfinylacetamido)-7α-methoxy-3-(1-methyl-1H-tetrazol-5-ylthiomethyl)-3-cephem-4-carboxylic acid] | 100 µg/mL (≈ 188 µM) | 0.8 µg/mL (≈ 1.51 µM) | 25 µg/mL (≈ 47.1 µM) | MIC ([1]; Salmonella enteritidis gaertner): ≤ 0.2 µg/mL; MIC (Escherichia coli, NIHJ): 1.6 µg/mL (≈ 3.02 µM); MIC ([3]; ATCC 6538 P): 0.8 µg/mL (≈ 1.51 µM); MIC ([4]; ATCC MS 27): 0.8 µg/mL (≈ 1.51 µM); MIC ([5]; Klebsiella pheumoniae, ATCC 10031): ≤ 0.2 µg/mL; MIC (Proteus rettgeri, ACR; Proteus rettgeri, ACR): 6.3 µg/mL (≈ 11.9 µM); MIC (Escherichia coli, 0205): 3.1 µg/mL (≈ 5.84 µM); MIC (Proteus morganii 0239; Proteus morganii 0239): 12.5 µg/mL (≈ 23.6 µM) |
| – | – | – | – | – | – | – | – | – | – | – | CO[C@@]1(NC(=O)C[S+]([O-])c2cccs2)C(=O)N2C(C(=O)[O-])=C(CSc3nnnn3C)CS[C@@H]21.[Na+] (stereo partly drawn) [Example 23, sodium 7β-(2-thienylsulfinylacetamido)-7α-methoxy-3-(1-methyl-1H-tetrazol-5-ylthiomethyl)-3-cephem-4-carboxylate] | – | – | – | MIC (Escherichia coli, 0205; text of Example 23 (sodium salt)): 3.1 µg/mL |
| ≤ 0.2 µg/mL | > 100 µg/mL | 0.8 µg/mL (≈ 1.6 µM) | 0.8 µg/mL (≈ 1.6 µM) | ≤ 0.2 µg/mL | 0.4 µg/mL (≈ 0.799 µM) | ≤ 0.2 µg/mL | 25 µg/mL (≈ 49.9 µM) | 25 µg/mL (≈ 49.9 µM) | 100 µg/mL (≈ 200 µM) | > 100 µg/mL | Cn1nnnc1SCC1=C(C(=O)O)N2C(=O)C(NC(=O)C[S+]([O-])c3cccs3)[C@H]2SC1 (stereo partly drawn) [A, 7-(2-Thienylsulfinylacetamido)-3-(1-methyl-1H-tetrazol-5-ylthiomethyl)-3-cephem-4-carboxylic acid] | – | – | – | – |
| 1.6 µg/mL (≈ 3.52 µM) | > 100 µg/mL | 1.6 µg/mL (≈ 3.52 µM) | 3.1 µg/mL (≈ 6.82 µM) | ≤ 0.2 µg/mL | 0.8 µg/mL (≈ 1.76 µM) | 1.6 µg/mL (≈ 3.52 µM) | > 100 µg/mL | 12.5 µg/mL (≈ 27.5 µM) | > 100 µg/mL | > 100 µg/mL | Cc1nnc(SCC2=C(C(=O)O)N3C(=O)[C@@H](NC(=O)Cn4cnnn4)[C@H]3SC2)s1 [Cefazolin, 7-(1H-Tetrazol-1-ylacetamido)-3-(5-methyl-1,3,4-thiadiazol-2-ylthiomethyl)-3-cephem-4-carboxylic acid] | – | – | – | – |

| SMILES | MIC [1, 7] | MIC [2, 8] | MIC (Escherichia coli, NIHJ; read-out: MIC) | MIC (Proteus mirabilis; read-out: MIC) | MIC [3, 9] | MIC [4, 10] | MIC [5, 11] | MIC (Proteus rettgeri, ACR; [12]) | MIC (Escherichia coli, 0205; read-out: MIC) | MIC [6, 13] | MIC (Proteus morganii 0239; [14]) | MIC ([2]; Citrobacter freundii) | MIC (Proteus mirabilis) | MIC ([6]; Enterobacter cloacae) | further results |
| --- | --- | --- | --- | --- | --- | --- | --- | --- | --- | --- | --- | --- | --- | --- | --- |
| CC(=O)OCC1=C(C(=O)O)N2C(=O)[C@@H](NC(=O)Cc3cccs3)[C@H]2SC1 [Cephalothin, 7-(2-Thienylacetamido)-3-acetoxymethyl-3-cephem-4-carboxylic acid] | – | – | 6.3 µg/mL (≈ 15.9 µM) | – | – | – | – | – | > 100 µg/mL | – | – | > 100 µg/mL | 6.3 µg/mL (≈ 15.9 µM) | > 100 µg/mL | MIC ([1]; Salmonella enterica, ENTERITIDIS): 1.6 µg/mL (≈ 4.04 µM); MIC ([3]; ATCC6538): ≤ 0.2 µg/mL; MIC ([4]; ATCCMS27): 0.4 µg/mL (≈ 1.01 µM); MIC ([5]; Klebsiella, ATCC10031): 0.8 µg/mL (≈ 2.02 µM); MIC (Proteus rettgeri, ACR; Providencia rettgeri): > 100 µg/mL; MIC (Proteus morganii 0239; Morganella morganii, 0239): > 100 µg/mL |
